In patent publication US20110038885A1, “CHEMOKINE ANALOGS” (priority 2007, published 2011):
Numbered stars: 1 amine (or outer) side, 2 acyl side, 3 side chain; on linkers, the order of the positions; unused ones are H or OH. Bridge positions count the residues as written; N and C are the ends. Square brackets hold non-standard residues; d marks the D form. Peptide text beside a SMILES is read from it. * marks the point of attachment. Hydrocinnamoyl(4-Me) = Cc1ccc(CCC(=O)*)cc1; NH(CH2)8CO = O=C(CCCCCCCCN[*:1])[*:2]; X3 = O=C(/C=C/c1ccc(Cl)cc1)*; Lauroyl = CCCCCCCCCCCC(=O)*; Decanoyl = CCCCCCCCCC(=O)*; Octanoyl = CCCCCCCC(=O)*; X5 = O=C(/C=C/c1ccccc1)*; Hexanoyl = CCCCCC(=O)*; Aoc = NCCCCCCCC(=O)O; Ahp = NCCCCCCC(=O)O; Ahx = NCCCCCC(=O)O; Ava = NCCCCC(=O)O; βAla = NCCC(=O)O

Test system: MCP-1
Test: In vitro chemotaxis (trans-well migration) v MCP-1
Type: cell-based, human
Protocol: To determine whether an agent inhibits a chemokine-induced activity, such as macrophage recruitment, varying amounts of the agent are mixed with cells in the presence of a known chemoattractant. For example, a range of known concentrations of an agent, e.g., a chemokine peptide, is incubated with a defined number (e.g., 10^4-10^6) of human THP-1 monocyte cells in individual wells of the top compartment of a trans-well plate. Chemokine, at a concentration known to cause significant migration of THP-1 cells in the trans-well migration assay, is placed in the lower compartment of a trans-well plate. Cells are then incubated at 37° C. for a period sufficient to allow migration, e.g., 4 hours. After incubation, the cells are gently removed from the top of the filter with a pipette, 20 μl of 20 mM EDTA in simple PBS is added into each top well, and incubated for 20 minutes at 4° C. The filter is carefully flushed with media using a gentle flow, and removed. A standard curve consisting of a two-fold dilution series of THP-1 cells (in 29 μl) is placed to accurately quantify the number of cells that have migrated. Migrated cells are stained with 3 μl of MTT stock dye solution which is added directly into each well (5 mg/ml in RPMI-1640 without phenol red) (Sigma Chemical Co., St. Louis, Mo., USA) and incubated at 37° C. for 4 hours. The media is carefully aspirated from each well, and the converted dye is solubilized by 20 μl of DMSO. Absorbance of converted dye is measured at a wavelength of 595 nm using an ELISA plate reader. The number of migrated cells in each well is then determined by interpolation of the standard curve (see also Imai et al., J. Biol. Chem., 272:15036, 1997). Any method suitable for counting cells can be used, for example, counting with a hemocytometer, incubation of the cells with MTT (see above), or FACS analysis. A negative control assay is also performed, using TGFβ or another non-chemokine chemoattractant (e.g., IL1β or TNFα). To assess whether the agent is cytotoxic, the same concentrations of agent are incubated with THP-1 cells. Agents which 1) are not cytotoxic at levels which inhibit migration, 2) are ineffective at inhibiting the negative control-induced migration, and 3) reduce or inhibit chemokine-induced THP-1 migration, are agents which fall within the scope of the invention.

Row | Compound | EC50
1 | CC[C@H](C)[C@@H]1NC(=O)[C@H](Cc2c[nH]c3ccccc23)NC(=O)[C@H](CCCCN)NC(=O)[C@@H](NC(C)=O)CSSC[C@@H](C(N)=O)NC(=O)[C@@H](CCC(N)=O)NC1=O [Example 75, Ac-c(Cys-Lys-Trp-Ile-D-Gln-Cys)-NH2] (Ac-CKWI[dQ]C-NH2; disulfide 1-6) | 25 nM
2 | CC[C@@H](C)[C@H]1NC(=O)[C@H](Cc2c[nH]c3ccccc23)NC(=O)[C@H](CCCCN)NC(=O)[C@@H](NC(C)=O)CSSC[C@@H](C(N)=O)NC(=O)[C@H](CCC(N)=O)NC1=O [Example 76, Ac-c(Cys-Lys-Trp-D-Ile-Gln-Cys)-NH2] (Ac-CKW[dI]QC-NH2; disulfide 1-6) | 20 nM
3 | CC[C@H](C)[C@@H]1NC(=O)[C@@H](Cc2c[nH]c3ccccc23)NC(=O)[C@H](CCCCN)NC(=O)[C@@H](NC(C)=O)CSSC[C@@H](C(N)=O)NC(=O)[C@H](CCC(N)=O)NC1=O [Example 77, Ac-c(Cys-Lys-D-Trp-Ile-Gln-Cys)-NH2] (Ac-CK[dW]IQC-NH2; disulfide 1-6) | 20 nM
4 | CC[C@H](C)[C@@H]1NC(=O)[C@H](Cc2c[nH]c3ccccc23)NC(=O)[C@@H](CCCCN)NC(=O)[C@@H](NC(C)=O)CSSC[C@@H](C(N)=O)NC(=O)[C@H](CCC(N)=O)NC1=O [Example 78, Ac-c(Cys-D-Lys-Trp-Ile-Gln-Cys)-NH2] (Ac-C[dK]WIQC-NH2; disulfide 1-6) | 30 nM
5 | CC[C@H](C)[C@@H]1NC(=O)[C@H](Cc2c[nH]c3ccccc23)NC(=O)[C@H](CCCCN)NC(=O)[C@H](NC(C)=O)CSSC[C@@H](C(N)=O)NC(=O)[C@H](CCC(N)=O)NC1=O [Example 79, Ac-c(D-Cys-Lys-Trp-Ile-Gln-Cys)-NH2] (Ac-[dC]KWIQC-NH2; disulfide 1-6) | 60 nM
6 | CCCCCCCC(=O)N[C@H]1CSSC[C@@H](C(N)=O)NC(=O)[C@H](CCC(N)=O)NC(=O)[C@H]([C@@H](C)CC)NC(=O)[C@H](Cc2c[nH]c3ccccc23)NC(=O)[C@H](CCCCN)NC1=O [Example 82, Octanoyl-c(Cys-Lys-Trp-Ile-Gln-Cys)-NH2] (Octanoyl-CKWIQC-NH2; disulfide 1-6) | 25 nM
7 | CCCCCCCCCC(=O)N[C@H]1CSSC[C@@H](C(N)=O)NC(=O)[C@H](CCC(N)=O)NC(=O)[C@H]([C@@H](C)CC)NC(=O)[C@H](Cc2c[nH]c3ccccc23)NC(=O)[C@H](CCCCN)NC1=O [Example 83, Decanoyl-c(Cys-Lys-Trp-Ile-Gln-Cys)-NH2] (Decanoyl-CKWIQC-NH2; disulfide 1-6) | 20 nM
8 | CCCCCCCCCCCC(=O)N[C@H]1CSSC[C@@H](C(N)=O)NC(=O)[C@H](CCC(N)=O)NC(=O)[C@H]([C@@H](C)CC)NC(=O)[C@H](Cc2c[nH]c3ccccc23)NC(=O)[C@H](CCCCN)NC1=O [Example 84, Dodecanoyl-c(Cys-Lys-Trp-Ile-Gln-Cys)-NH2] (Lauroyl-CKWIQC-NH2; disulfide 1-6) | 15 nM
9 | CC[C@H](C)[C@@H]1NC(=O)[C@@H](NC(=O)[C@@H](N)Cc2c[nH]c3ccccc23)CSSC[C@@H](C(N)=O)NC(=O)[C@H](CCC(N)=O)NC1=O [Example 85, Trp-c(Cys-Ile-Gln-Cys)-NH2] (H-WCIQC-NH2; disulfide 2-5) | 50 nM
10 | CC[C@H](C)[C@@H]1NC(=O)[C@H](Cc2c[nH]c3ccccc23)NC(=O)[C@H](CCCCN)NC(=O)CNC(=O)C[C@@H](C(N)=O)NC(=O)[C@H](CCC(N)=O)NC1=O [Example 87, c(Gly-Lys-Trp-Ile-Gln-Asp)-NH2] (GKWIQD-NH2; lactam N-6) | 15 nM
11 | CC[C@H](C)[C@@H]1NC(=O)[C@H](Cc2c[nH]c3ccccc23)NC(=O)[C@H](CCCCN)NC(=O)CCNC(=O)CC[C@@H](C(N)=O)NC(=O)[C@H](CCC(N)=O)NC1=O [Example 89, c((βAla-Lys-Trp-Ile-Gln-Glu)-NH2] ([βAla]KWIQE-NH2; lactam N-6) | 20 nM
12 | CC[C@H](C)[C@@H]1NC(=O)[C@H](Cc2c[nH]c3ccccc23)NC(=O)[C@H](CCCCN)NC(=O)CCCCCCCNC(=O)C[C@@H](C(N)=O)NC(=O)[C@H](CCC(N)=O)NC1=O [Example 95, c(Aoc-Lys-Trp-Ile-Gln-Asp)-NH2] ([Aoc]KWIQD-NH2; lactam N-6) | 20 nM
13 | CC[C@H](C)[C@@H]1NC(=O)[C@H](Cc2c[nH]c3ccccc23)NC(=O)[C@H](CCCCN)NC(=O)CCCCCCCCNC(=O)C[C@@H](C(N)=O)NC(=O)[C@H](CCC(N)=O)NC1=O [Example 97, c(Anc-Lys-Trp-Ile-Gln-Asp)-NH2] ([NH(CH2)8CO]KWIQD-NH2; lactam N-6) | 15 nM

Now those with a lower EC50, led by results:

Row | EC50 | Compound
14 | 8 nM | CC[C@H](C)[C@@H]1NC(=O)[C@H](Cc2c[nH]c3ccccc23)NC(=O)[C@H](CCCCN)NC(=O)[C@@H](NC(=O)/C=C/c2ccccc2)CSSC[C@@H](C(N)=O)NC(=O)[C@H](CCC(N)=O)NC1=O [Example 72, trans-Ciimamoyl-c(Cys-Lys-Trp-Ile-Gln-Cys)-NH2] (X5-CKWIQC-NH2; disulfide 1-6)
15 | 10 nM | CC[C@H](C)[C@@H]1NC(=O)[C@H](Cc2c[nH]c3ccccc23)NC(=O)[C@H](CCCCN)NC(=O)[C@@H](NC(=O)/C=C/c2ccc(Cl)cc2)CSSC[C@@H](C(N)=O)NC(=O)[C@H](CCC(N)=O)NC1=O [Example 73, 4-Chlorocinnamoyl-c(Cys-Lys-Trp-Ile-Gln-Cys)-NH2] (X3-CKWIQC-NH2; disulfide 1-6)
16 | 7 nM | CC[C@H](C)[C@@H]1NC(=O)[C@H](Cc2c[nH]c3ccccc23)NC(=O)[C@H](CCCCN)NC(=O)[C@@H](NC(C)=O)CSSC[C@H](C(N)=O)NC(=O)[C@H](CCC(N)=O)NC1=O [Example 74, Ac-c(Cys-Lys-Trp-Ile-Gln-D-Cys)-NH2] (Ac-CKWIQ[dC]-NH2; disulfide 1-6)
17 | 10 nM | CC[C@H](C)[C@@H]1NC(=O)[C@H](Cc2c[nH]c3ccccc23)NC(=O)[C@H](CCCCN)NC(=O)[C@@H](NC(=O)CCc2ccc(C)cc2)CSSC[C@@H](C(N)=O)NC(=O)[C@H](CCC(N)=O)NC1=O [Example 80, (Des-amino-4-methyl)Phe-c(Cys-Lys-Trp-Ile-Gln-Cys)-NH2] ({Hydrocinnamoyl(4-Me)}-CKWIQC-NH2; disulfide 1-6)
18 | 5 nM | CCCCCC(=O)N[C@H]1CSSC[C@@H](C(N)=O)NC(=O)[C@H](CCC(N)=O)NC(=O)[C@H]([C@@H](C)CC)NC(=O)[C@H](Cc2c[nH]c3ccccc23)NC(=O)[C@H](CCCCN)NC1=O [Example 81, n-Hexanoyl-c(Cys-Lys-Trp-Ile-Gln-Cys)-NH2] (Hexanoyl-CKWIQC-NH2; disulfide 1-6)
19 | 7.5 nM | CC[C@H](C)[C@@H]1NC(=O)[C@@H](N)CSSC[C@@H](C(N)=O)NC(=O)[C@H](CCC(N)=O)NC1=O [Example 86, c(Cys-Ile-Gln-Cys)-NH2] (H-CIQC-NH2; disulfide 1-4)
20 | 9 nM | CC[C@H](C)[C@@H]1NC(=O)[C@H](Cc2c[nH]c3ccccc23)NC(=O)[C@H](CCCCN)NC(=O)CNC(=O)CC[C@@H](C(N)=O)NC(=O)[C@H](CCC(N)=O)NC1=O [Example 88, c(Gly-Lys-Trp-Ile-Gln-Glu)-NH2] (GKWIQE-NH2; lactam N-6)
21 | 7 nM | CC[C@H](C)[C@@H]1NC(=O)[C@H](Cc2c[nH]c3ccccc23)NC(=O)[C@H](CCCCN)NC(=O)CCCCNC(=O)C[C@@H](C(N)=O)NC(=O)[C@H](CCC(N)=O)NC1=O [Example 90, c(Apn-Lys-Trp-Ile-Gln-Asp)-NH2] ([Ava]KWIQD-NH2; lactam N-6)
22 | 9 nM | CC[C@H](C)[C@@H]1NC(=O)[C@H](Cc2c[nH]c3ccccc23)NC(=O)[C@H](CCCCN)NC(=O)CCCCNC(=O)CC[C@@H](C(N)=O)NC(=O)[C@H](CCC(N)=O)NC1=O [Example 91, c(Apn-Lys-Trp-Ile-Gln-Glu)-NH2] ([Ava]KWIQE-NH2; lactam N-6)
23 | 5 nM | CC[C@H](C)[C@@H]1NC(=O)[C@H](Cc2c[nH]c3ccccc23)NC(=O)[C@H](CCCCN)NC(=O)CCCCCNC(=O)CC[C@@H](C(N)=O)NC(=O)[C@H](CCC(N)=O)NC1=O [Example 92, c(Ahx-Lys-Trp-Ile-Gln-Glu)-NH2] ([Ahx]KWIQE-NH2; lactam N-6)
24 | 8 nM | CC[C@H](C)[C@@H]1NC(=O)[C@H](Cc2c[nH]c3ccccc23)NC(=O)[C@H](CCCCN)NC(=O)CCCCCCNC(=O)C[C@@H](C(N)=O)NC(=O)[C@H](CCC(N)=O)NC1=O [Example 93, c(Aha-Lys-Trp-Ile-Gln-Asp)-NH2] ([Ahp]KWIQD-NH2; lactam N-6)
25 | 10 nM | CC[C@H](C)[C@@H]1NC(=O)[C@H](Cc2c[nH]c3ccccc23)NC(=O)[C@H](CCCCN)NC(=O)CCCCCCNC(=O)CC[C@@H](C(N)=O)NC(=O)[C@H](CCC(N)=O)NC1=O [Example 94, c(Aha-Lys-Trp-Ile-Gln-Glu)-NH2] ([Ahp]KWIQE-NH2; lactam N-6)
26 | 4 nM | CC[C@H](C)[C@@H]1NC(=O)[C@H](Cc2c[nH]c3ccccc23)NC(=O)[C@H](CCCCN)NC(=O)CCCCCCCNC(=O)CC[C@@H](C(N)=O)NC(=O)[C@H](CCC(N)=O)NC1=O [Example 96, c(Aoc-Lys-Trp-Ile-Gln-Glu)-NH2] ([Aoc]KWIQE-NH2; lactam N-6)
